According to ChEMBL document CHEMBL1142471, “Antioxidant capacity of human blood plasma and human urine: simultaneous evaluation of the ORAC index and ascorbic acid concentration employing pyrogallol red as probe” (Bioorg Med Chem, 2008):

Tests used:
Type in all cases: functional
[1] = Antioxidant activity assessed as oxygen radical absorbance capacity index value by fluorescein protection assay
[2] = Antioxidant activity assessed as oxygen radical absorbance capacity index value by pyrogallol red protection assay
[3] = Antioxidant activity assessed as oxygen radical absorbance capacity index value at 5 uM by pyrogallol red protection assay

Structure (SMILES) | Activity [1] | Activity [2] | Activity [3]
Oc1nc(O)c2nc(O)[nH]c2n1 | 0.72 | 0.02 | –
N[C@@H](CCC(=O)N[C@@H](CS)C(=O)NCC(=O)O)C(=O)O | 0.62 | – | –
O=C1O[C@H]([C@@H](O)CO)C(O)=C1O | 0.95 | – | 9.7
